Test results reported in patent US10292391B2, “Pesticidally active 1,2,4-triazole derivatives with sulphur containing substituents” (Syngenta Participations AG, priority 2015, dated 2019).

Key:
Assay type in all cases: in vivo
[1] = tested on: Diabrotica Balteata (Corn Root Worm); assay: Activity against Diabrotica balteata, sprayed maize sprouts; conditions: 96 h, application rate of 200 ppm, L2 larvae, 4 days after infestation, read-out: effect in at least one of the two categories (mortality or growth inhibition)
Method: Maize sprouts, placed on an agar layer in 24-well microtiter plates were treated with aqueous test solutions prepared from 10,000 ppm DMSO stock solutions by spraying. After drying, the plates were infested with L2 larvae (6 to 10 per well). The samples were assessed for mortality and growth inhibition in comparison to untreated samples 4 days after infestation.

[2] = tested on: Myzus persicae (Green Peach Aphid); assay: Activity against Myzus persicae, sprayed sunflower leaf discs; conditions: foliar, 144 h, application rate of 200 ppm, aphid population of mixed ages, 6 days after infestation
Method: (§1) Sunflower leaf discs were placed on agar in a 24-well microtiter plate and sprayed with aqueous test solutions prepared from 10,000 ppm DMSO stock solutions. After drying, the leaf discs were infested with an aphid population of mixed ages. The samples were assessed for mortality 6 days after infestation.

[3] = tested on: Myzus persicae (Green Peach Aphid); assay: Activity against Myzus persicae, systemic via roots of pea seedlings; conditions: 144 h, test rate of 24 ppm, roots of pea seedlings in test solution, 6 days
Method: Roots of pea seedlings infested with an aphid population of mixed ages were placed directly in the aqueous test solutions prepared from 10,000 DMSO stock solutions. The samples were assessed for mortality 6 days after placing seedlings in test solutions.

[4] = tested on: Euschistus heros(Neotropical Brown Stink Bug); assay: Activity against Euschistus heros, sprayed soybean leaf; conditions: 120 h, application rate of 200 ppm, N-2 nymphs, 5 days after infestation, read-out: effect in at least one of the two categories (mortality or growth inhibition)
Method: Soybean leaf on agar in 24-well microtiter plates were sprayed with aqueous test solutions prepared from 10,000 ppm DMSO stock solutions. After drying the leaf were infested with N-2 nymphs. The samples were assessed for mortality and growth inhibition in comparison to untreated samples 5 days after infestation.

[5] = tested on: Spodoptera littoralis (Egyptian Cotton Leaf Worm); assay: Activity against Spodoptera littoralis, sprayed cotton leaf discs; conditions: foliar, 72 h, application rate of 200 ppm, L1 larvae, 3 days after infestation, read-out: control (at least one of mortality, anti-feedant effect, and growth inhibition)
Method: Cotton leaf discs were placed on agar in 24-well microtiter plates and sprayed with aqueous test solutions prepared from 10,000 ppm DMSO stock solutions. After drying the leaf discs were infested with five L1 larvae. The samples were assessed for mortality, anti-feedant effect, and growth inhibition in comparison to untreated samples 3 days after infestation. Control of Spodoptera littoralis by a test sample is when at least one of mortality, anti-feedant effect, and growth inhibition is higher than the untreated sample.

[6] = tested on: Plutella xylostella (Diamond Back Moth); assay: Activity against Plutella xylostella, treated artificial diet; conditions: 120 h, application rate of 200 ppm, L2 larvae, 5 days after infestation, read-out: effect in at least one of the two categories (mortality or growth inhibition)
Method: 24-well microtiter plates with artificial diet were treated with aqueous test solutions prepared from 10,000 ppm DMSO stock solutions by pipetting. After drying, the plates were infested with L2 larvae (10 to 15 per well). The samples were assessed for mortality and growth inhibition in comparison to untreated samples 5 days after infestation.

[7] = tested on: Frankliniella occidentalis (Western Flower Thrips); assay: Activity against Frankliniella occidentalis, sprayed sunflower leaf discs; conditions: foliar, 168 h, application rate of 200 ppm, population of mixed ages, 7 days after infestation
Method: as §1, with “in” for “in a”, “plates” for “plate”, “10,000” for “10,000 ppm”, “drying” for “drying,”, “a Frankliniella” for “an aphid”, “7” for “6”

[8] = tested on: Thrips tabaci (Onion Thrips); assay: Activity against Thrips tabaci, sprayed sunflower leaf discs; conditions: foliar, 144 h, application rate of 200 ppm, thrips population of mixed ages, 6 days after infestation
Method: as §1, with “in” for “in a”, “plates” for “plate”, “drying” for “drying,”, “a thrips” for “an aphid”

[9] = tested on: Spodoptera littoralis (Egyptian Cotton Leaf Worm); assay: Activity against Spodoptera littoralis, systemic via lettuce grown on treated agar; conditions: 144 h, test rate of 12.5 ppm, root uptake by lettuce, 6 days after infestation, read-out: effect in at least one of the three categories (mortality, anti-feedancy, or growth inhibition)
Source text: Test compounds were applied by pipette from 10,000 ppm DMSO stock solutions into 24-well plates and mixed with agar. Lettuce seeds were placed on the agar and the multi well plate was closed by another plate which contains also agar. After 7 days the roots have absorbed the compound and the lettuce has grown into the lid plate. The lettuce leafs were now cut off into the lid plate. Spodoptera eggs were pipetted through a plastic stencil on a humid gel blotting paper and the plate closed with it. The samples were assessed for mortality, anti-feedant effect and growth inhibition in comparison to untreated samples 6 days after infestation.

CCS(=O)(=O)c1ccc(-n2cncn2)nc1-c1nnc(-c2cc(C(F)(F)F)ncn2)n1C [Compound P47]
≥ 80%: percent effect (mortality or growth inhibition) at 200 ppm [1] | mortality at 200 ppm [2] | mortality at 24 ppm [3] | percent effect (mortality or growth inhibition) at 200 ppm [4]

C=C(OCC)c1cnc(-c2nnc(-c3cc(C(F)(F)F)ccn3)n2C)c(S(=O)(=O)CC)c1 [Compound P13]
≥ 80%: mortality at 200 ppm [5] | percent effect (mortality or growth inhibition) at 200 ppm [6] | percent effect (mortality or growth inhibition) at 200 ppm [1] | mortality at 200 ppm [2] | mortality at 200 ppm [7] | mortality at 200 ppm [8]

CCS(=O)(=O)c1cc(-n2cnc(C#N)c2)cnc1-c1nnc(-c2cc(C(F)(F)F)ccn2)n1C [Compound P15]
≥ 80%: mortality at 24 ppm [3] | mortality at 200 ppm [8]

CCS(=O)(=O)c1ccc(-c2ncccn2)nc1-c1nnc(-c2cc(C(F)(F)F)ncn2)n1C [Compound P54]
≥ 80%: percent effect (mortality or growth inhibition) at 200 ppm [6] | percent effect (mortality or growth inhibition) at 200 ppm [1] | mortality at 200 ppm [2] | mortality at 24 ppm [3] | mortality at 200 ppm [7] | percent effect (mortality or growth inhibition) at 200 ppm [4]

CCS(=O)(=O)c1ccc(-c2ncccn2)nc1-c1nnc(-c2cc(C(F)(F)F)ccn2)n1C [Compound P39]
≥ 80%: mortality at 200 ppm [5] | percent control (mortality, anti-feedancy or growth inhibition) at 12.5 ppm [9] | percent effect (mortality or growth inhibition) at 200 ppm [6] | percent effect (mortality or growth inhibition) at 200 ppm [1] | mortality at 200 ppm [2] | mortality at 24 ppm [3] | percent effect (mortality or growth inhibition) at 200 ppm [4]

CCS(=O)(=O)c1cc(-c2ccc(Cl)cn2)cnc1-c1nnc(-c2cc(C(F)(F)F)ccn2)n1C [Compound P25]
≥ 80%: mortality at 200 ppm [5] | percent control (mortality, anti-feedancy or growth inhibition) at 12.5 ppm [9] | percent effect (mortality or growth inhibition) at 200 ppm [6] | percent effect (mortality or growth inhibition) at 200 ppm [1] | percent effect (mortality or growth inhibition) at 200 ppm [4] | mortality at 200 ppm [8]

CCS(=O)(=O)c1cc(-n2cc(Cl)cn2)cnc1-c1nnc(-c2cc(C(F)(F)F)ccn2)n1C [Compound P7]
≥ 80%: mortality at 200 ppm [5] | percent control (mortality, anti-feedancy or growth inhibition) at 12.5 ppm [9] | percent effect (mortality or growth inhibition) at 200 ppm [6] | percent effect (mortality or growth inhibition) at 200 ppm [1] | mortality at 200 ppm [2] | mortality at 200 ppm [7] | percent effect (mortality or growth inhibition) at 200 ppm [4] | mortality at 200 ppm [8]

CCS(=O)(=O)c1cc(-c2ncccn2)cnc1-c1nnc(-c2cc(C(F)(F)F)ccn2)n1C [Compound P9, 2-[5-ethylsulfonyl-6-[4-methyl-5-[4-(trifluoromethyl)-2-pyridyl]-1,2,4-triazol-3-yl]-3-pyridyl]pyrimidine]
≥ 80%: mortality at 200 ppm [5] | percent control (mortality, anti-feedancy or growth inhibition) at 12.5 ppm [9] | percent effect (mortality or growth inhibition) at 200 ppm [6] | percent effect (mortality or growth inhibition) at 200 ppm [1] | mortality at 200 ppm [2] | mortality at 24 ppm [3] | mortality at 200 ppm [7] | percent effect (mortality or growth inhibition) at 200 ppm [4]

CCS(=O)(=O)c1cc(-n2cncn2)cnc1-c1nnc(-c2cc(C(F)(F)F)ncn2)n1C [Compound P46]
≥ 80%: percent effect (mortality or growth inhibition) at 200 ppm [1] | mortality at 200 ppm [2] | mortality at 24 ppm [3] | mortality at 200 ppm [7]

CCS(=O)(=O)c1cc(-c2ccc(C#N)cn2)cnc1-c1nnc(-c2cc(C(F)(F)F)ccn2)n1C [Compound P22]
≥ 80%: mortality at 200 ppm [5] | percent control (mortality, anti-feedancy or growth inhibition) at 12.5 ppm [9] | percent effect (mortality or growth inhibition) at 200 ppm [6] | percent effect (mortality or growth inhibition) at 200 ppm [1] | mortality at 200 ppm [2] | mortality at 200 ppm [7] | percent effect (mortality or growth inhibition) at 200 ppm [4] | mortality at 200 ppm [8]

CCS(=O)(=O)c1cc(-c2cc(Cl)ccn2)cnc1-c1nnc(-c2cc(C(F)(F)F)ccn2)n1C [Compound P26]
≥ 80%: mortality at 200 ppm [5] | percent control (mortality, anti-feedancy or growth inhibition) at 12.5 ppm [9] | percent effect (mortality or growth inhibition) at 200 ppm [6] | percent effect (mortality or growth inhibition) at 200 ppm [1] | mortality at 200 ppm [2] | mortality at 200 ppm [7] | percent effect (mortality or growth inhibition) at 200 ppm [4] | mortality at 200 ppm [8]
